Measured values as given in patent US5373090A, “Aprotinin analogues and a process for the production thereof” (Novo Nordisk A/S, priority 1988, dated 1994).
pKi: −log10 of the molar value.

Columns and labels:
granulocyte elastase = target: T1, granulocyte elastase (Homo sapiens, UniProt P08246); conditions: known analogues, as claimed in prior art; cited from earlier work
T1 sequence (P08246 30-267): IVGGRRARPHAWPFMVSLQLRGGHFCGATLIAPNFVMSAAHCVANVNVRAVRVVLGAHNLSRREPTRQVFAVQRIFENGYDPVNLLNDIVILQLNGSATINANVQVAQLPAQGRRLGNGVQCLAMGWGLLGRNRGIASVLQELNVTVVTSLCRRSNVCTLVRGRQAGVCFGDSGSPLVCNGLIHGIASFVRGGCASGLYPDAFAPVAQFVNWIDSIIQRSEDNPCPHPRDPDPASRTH

collagenase = conditions: known analogues, as claimed in prior art; cited from earlier work
Human plasma kallikrein = target: T2, Human plasma kallikrein (Homo sapiens, UniProt P03952); experiment: Inhibition of amidolytic activity of human plasma kallikrein (substrate S2302); format: biochemical
T2 construct: purchased Sigma (St. Louis, Mo.)
Protocol: (§1) The concentration was calculated using E280 nm=8.3 and Mr =6500. Human plasma kallikrein was obtained from Sigma (St. Louis, Mo.), bovine factor Xa was purified according to (H. Nobukazu et al. J.Biochem. 97 (1985)1347-1355), human factor IIa (thrombin) was a gift from Dr. W. Lawson (New York State Dept. of Health, Albany, N.Y.), recombinant human factor VIIa was from NOVO (Bagsvaerd, Denmark) and recombinant human protein Ca was from ZymoGenetics, Inc. (Seattle, Wash.). Substrate S 2302 (H-D-Pro-Phe-Arg-p-nitroanilide) substrate S2238 (H-D-Phe-Pip-Arg-p-nitroanilide) and substrate S2366 (Glu-Pro-Arg-p-nitroanilide) were from Kabi (Stockholm, Sweden). Substrate FXa-1 (methoxycarbonyl DCH-Gly-Arg-p-nitroanilide) was from NycoMed (Oslo, Norway). The experiments were performed in 100 mM NaCl, 50 mM Tris-HCl 0.01% Tween80, pH 7.4 at 25° C.
Substrate S 2302 (0.6 mM) was added to a final volume of 300 μand the rate of nitroaniline generation was measured at 405 nm by means of a Micro ELISA® Autoreader MR 580 from Dynatech Laboratories. The rate is proportional to the concentration of free enzyme.

[1] = target: T3, human factor IIa (thrombin) (Homo sapiens, UniProt P00734); experiment: Inhibition of amidolytic activity of factor IIa (substrate S2238); format: biochemical; conditions: 1.0 μM aprotinin analogue
T3 construct: human factor IIa (thrombin) was a gift from Dr. W. Lawson; gift from Dr. W. Lawson (New York State Dept. of Health, Albany, N.Y.)
Protocol: as §1
(§2) Substrate S 2302 (0.6 mM) was added to a final volume of 300 μand the rate of nitroaniline generation was measured at 405 nm by means of a Micro ELISA® Autoreader MR 580 from Dynatech Laboratories. […]
(§3) The analogues were also tested for inhibition of the amidolytic activity of the serine proteases: bovine factor Xa, human factor IIa, human recombinant factor VIIa and human recombinant protein Ca. […] Finally the analogues were analysed for an effect on the coagulation factors of human plasma by means of two clotting tests. […]

[2] = target: T4, recombinant human factor VIIa (Homo sapiens, UniProt P08709); experiment: Inhibition of amidolytic activity of factor VIIa; format: biochemical; conditions: 1.0 μM aprotinin analogue
T4 construct: recombinant human factor VIIa was from NOVO (Bagsvaerd, Denmark)
T4 sequence (P08709 213-466 limits assumed): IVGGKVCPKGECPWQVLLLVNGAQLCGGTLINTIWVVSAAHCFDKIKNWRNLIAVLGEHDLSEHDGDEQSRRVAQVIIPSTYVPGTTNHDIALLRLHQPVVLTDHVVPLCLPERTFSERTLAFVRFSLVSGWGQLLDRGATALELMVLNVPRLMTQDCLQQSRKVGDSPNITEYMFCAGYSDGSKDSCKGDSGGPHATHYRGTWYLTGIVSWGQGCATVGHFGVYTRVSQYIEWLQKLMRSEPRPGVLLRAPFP
T4 sequence (P08709 61-212 partner limits assumed): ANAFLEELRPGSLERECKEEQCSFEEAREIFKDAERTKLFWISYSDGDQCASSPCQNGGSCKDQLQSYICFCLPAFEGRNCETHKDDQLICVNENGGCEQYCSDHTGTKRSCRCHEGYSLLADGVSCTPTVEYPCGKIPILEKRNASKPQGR
Protocol: as §1, §2, §3

bovine factor Xa = target: T5, bovine factor Xa (Bos taurus, UniProt P00743); experiment: Inhibition of amidolytic activity of factor Xa (substrate FXa-1); format: biochemical; conditions: 1.0 μM aprotinin analogue; substrate FXa1
T5 construct: bovine factor Xa was purified according to (H. Nobukazu et al. J.Biochem. 97 (1985)1347-1355); from tissue; bovine plasma inferred
Protocol: as §1, §2, §3

[3] = target: T6, recombinant human protein Ca (Homo sapiens, UniProt P04070); experiment: Inhibition of amidolytic activity of protein Ca (substrate S2366); format: biochemical; conditions: graphical Dixon method, read-out: Ki, amidolytic activity, Prot. Ca
T6 construct: purchased ZymoGenetics, Inc. (Seattle, Wash.)
Protocol: as §1, §2, §3

[4] = system: coagulation factors of human plasma; experiment: Clotting test, prothrombin time (PTT); format: biochemical; conditions: 1.0 μM aprotinin analogue
Protocol: (§4) The analogues were also tested for inhibition of the amidolytic activity of the serine proteases: bovine factor Xa, human factor IIa, human recombinant factor VIIa and human recombinant protein Ca. The experiments were performed essentially as described for plasma kallikrein only appropriate substrates were used. Finally the analogues were analysed for an effect on the coagulation factors of human plasma by means of two clotting tests. These tests, the prothrombin time (PTT) and the activated thromboplastin time (APTT) were performed with General Diagnostics® reagents from Organon (Durham, N.C.) according to the directions given by the manufacturer.

[5] = system: coagulation factors of human plasma; experiment: Clotting test, activated thromboplastin time (APTT); format: biochemical; conditions: 1.0 μM aprotinin analogue
Protocol: as §4

trypsin = target: T7, trypsin (Bos taurus, UniProt P00760); conditions: known analogues, as claimed in prior art; cited from earlier work
T7 construct: gene PRSS1
T7 sequence (P00760 24-246): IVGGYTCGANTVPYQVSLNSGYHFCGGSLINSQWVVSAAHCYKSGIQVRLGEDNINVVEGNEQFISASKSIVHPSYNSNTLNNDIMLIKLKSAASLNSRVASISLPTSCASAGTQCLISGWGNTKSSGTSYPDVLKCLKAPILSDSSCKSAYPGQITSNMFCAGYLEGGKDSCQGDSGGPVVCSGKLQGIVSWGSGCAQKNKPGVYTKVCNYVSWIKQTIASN

kallikrein = conditions: known analogues, as claimed in prior art; cited from earlier work

T2 sequence (P03952 391-638 limits assumed): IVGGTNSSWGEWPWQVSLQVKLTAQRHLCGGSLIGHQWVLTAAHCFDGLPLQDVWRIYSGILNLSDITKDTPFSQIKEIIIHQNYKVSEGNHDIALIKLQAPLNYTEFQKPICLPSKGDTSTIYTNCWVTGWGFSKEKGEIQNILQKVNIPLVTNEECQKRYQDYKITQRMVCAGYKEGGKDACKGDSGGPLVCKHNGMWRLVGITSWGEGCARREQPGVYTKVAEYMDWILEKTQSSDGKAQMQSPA
T2 sequence (P03952 20-390 partner limits assumed): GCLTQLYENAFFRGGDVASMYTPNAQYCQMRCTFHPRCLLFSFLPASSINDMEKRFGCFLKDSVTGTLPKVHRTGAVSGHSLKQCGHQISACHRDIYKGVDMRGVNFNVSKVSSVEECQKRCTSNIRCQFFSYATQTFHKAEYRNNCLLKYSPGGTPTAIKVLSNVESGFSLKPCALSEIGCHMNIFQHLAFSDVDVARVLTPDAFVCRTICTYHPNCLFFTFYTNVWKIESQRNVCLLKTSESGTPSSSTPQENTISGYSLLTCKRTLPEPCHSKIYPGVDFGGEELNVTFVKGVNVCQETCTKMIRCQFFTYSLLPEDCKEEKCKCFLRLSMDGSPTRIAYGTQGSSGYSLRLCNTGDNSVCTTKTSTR
T6 sequence (P04070 212-461 limits assumed): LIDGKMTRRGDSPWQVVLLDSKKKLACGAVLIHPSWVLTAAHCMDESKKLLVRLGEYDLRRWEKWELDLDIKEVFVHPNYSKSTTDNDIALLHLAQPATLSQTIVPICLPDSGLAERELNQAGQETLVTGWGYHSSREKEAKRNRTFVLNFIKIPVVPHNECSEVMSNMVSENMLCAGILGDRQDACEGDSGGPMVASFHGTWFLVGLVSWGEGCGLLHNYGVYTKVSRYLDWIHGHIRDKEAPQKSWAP
T6 sequence (P04070 43-197 partner limits assumed): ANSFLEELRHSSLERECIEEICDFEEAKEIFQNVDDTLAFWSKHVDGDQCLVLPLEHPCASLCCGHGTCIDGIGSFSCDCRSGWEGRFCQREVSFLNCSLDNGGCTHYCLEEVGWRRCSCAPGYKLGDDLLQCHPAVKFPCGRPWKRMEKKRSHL
T5 sequence (P00743 234-492 limits assumed): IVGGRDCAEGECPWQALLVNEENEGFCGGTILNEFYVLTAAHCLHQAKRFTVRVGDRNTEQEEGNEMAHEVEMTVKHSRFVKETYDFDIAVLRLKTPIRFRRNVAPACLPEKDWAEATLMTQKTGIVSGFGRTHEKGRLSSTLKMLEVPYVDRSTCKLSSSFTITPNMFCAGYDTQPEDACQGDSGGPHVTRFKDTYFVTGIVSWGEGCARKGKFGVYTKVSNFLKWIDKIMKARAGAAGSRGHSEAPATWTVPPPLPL
T5 sequence (P00743 41-180 partner limits assumed): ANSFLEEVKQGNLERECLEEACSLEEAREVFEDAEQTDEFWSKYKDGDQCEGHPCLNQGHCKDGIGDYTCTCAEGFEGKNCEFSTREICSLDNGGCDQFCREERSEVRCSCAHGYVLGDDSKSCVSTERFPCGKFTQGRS

Substance: aprotinin(15 Val)
- Effect on elastase (in words) (granulocyte elastase): relatively high selectivity for granulocyte elastase
- Inhibition effect on collagenase (in words) (collagenase): inhibition effect on collagenase

Substance: Aprotinin (bovine pancreatic trypsin inhibitor, BPTI) [Native Aprotinin]
- pKi (Human plasma kallikrein; graphical Dixon method, substrate S2302, pH 7.4, 25° C.): 6.74
- Inhibition of plasma kallikrein (in words, FIGS. 5A and 5B) (Human plasma kallikrein; kallikrein 3 nM, aprotinin 0-20 nM, 30 minutes): moderate inhibition
- Amidolytic activity of FIIa, inhibition [1]: -
- Amidolytic activity of FVIIa, inhibition [2]: -
- Amidolytic activity of FXa, inhibition (bovine factor Xa): -
- pKi [3]: 6.40
- Clot assays PTT [4]: -
- Clot assays APTT [5]: -

Substance: aprotinin(15Ala)
- Effect on elastase (in words) (granulocyte elastase): only a weak inhibitory effect on elastase

Substance: aprotinin(15Gly)
- Antitrypsin activity (in words) (trypsin): outstanding antitrypsin activity
- Inhibition of kallikrein (in words) (kallikrein): surprisingly inhibits kallikrein
